Measured values reported in patent US11780832B2, “Lactivicin compounds, their preparation and use as antibacterial agents” (priority 2021, dated 2023).
Values after ≈ are worked out from the molar mass of the structure shown.

Legend:
Experiment in all cases: MIC, CLSI broth microdilution
Type in all cases: cell-based
[1] = system: Pseudomonas aeruginosa ATCC 27853; settings: ATCC27853
Method: (§1) Gram-negative and Gram-positive bacterial strains used during the in vitro minimum inhibitory concentration (MIC) determination were obtained either from the American Type Culture Collection (ATCC) or from clinical specimens. All strains were characterized genotypically and the respective antibiotic resistance markers for each strain were identified.
(§2) Isolates were sub-cultured onto appropriate media and stocked in skim milk at −80° C. Following two subcultures from frozen stock, in vitro antimicrobial susceptibility testing was performed using the Clinical and Laboratory Standards Institute (CLSI) broth microdilution method. Briefly, fresh cultures were suspended in culture media to give a final stock inoculum size of 5×10^7 colony forming units per milliliter of broth (CFU/mL). […] 100 μL of the stock solutions were added to the first wells in a 96-well plate and were then diluted using a 2-fold dilution method to give a range of 32-0.025 μg/mL. 100 μL of the bacterial suspensions were then added to the 96-well plates to give a final working inoculum size of 5×10^5 CFU/mL. The final compound concentration range was 16-0.0125 μg/mL. […] MICs for comparator agents were determined using custom-designed, in-house prepared 96-well broth microdilution panels.

[2] = system: Klebsiella pneumoniae OXA-48, SHV-1
Method: as §1, §2

[3] = system: Escherichia coli CMY-2; settings: CMY2
Method: as §1, §2

[4] = system: Acinetobacter baumannii ATCC 19606; settings: ATCC19606
Method: as §1, §2

[5] = system: Escherichia coli Empty pSMART plasmid
Method: as §1, §2

[6] = system: Escherichia coli SHV-12; settings: SHV12
Method: as §1, §2

[7] = system: Escherichia coli ATCC 25922; settings: ATCC25922
Method: as §1, §2

[8] = system: Escherichia coli CTX-M-15; settings: CTXM15
Method: as §1, §2

[9] = system: Klebsiella pneumoniae KPC-2; settings: KPC2
Method: as §1, §2

[10] = system: Klebsiella pneumoniae KPC-3; settings: KPC3, KPC-3, read-out: MIC
Method: as §1, §2

[11] = system: Klebsiella pneumoniae SHV-12; settings: SHV12, SHV-12, read-out: MIC
Method: as §1, §2

[12] = system: Enterobacter cloacae species complex NDM-1
Method: as §1, §2

[13] = system: Escherichia coli Isogenic TEM-10
Method: as §1, §2

[14] = system: Escherichia coli Isogenic TEM-26
Method: as §1, §2

[15] = system: Klebsiella pneumoniae OXA-163, OXA-1_OXA-30, SHV-1, TEM-1
Method: as §1, §2

[16] = system: Serratia marcescens AmpC overexpressed
Method: as §1, §2

[17] = system: Klebsiella oxytoca KPC-2, TEM-1; settings: KPC-2, TEM-1, read-out: MIC
Method: as §1, §2

[18] = system: Pseudomonas aeruginosa OprD negative
Method: as §1, §2

[19] = system: Serratia marcescens SME-2; settings: SME2
Method: as §1, §2

[20] = system: Escherichia coli pSMART_Ecloacae_AmpC
Method: as §1, §2

[21] = system: Pseudomonas aeruginosa AmpC overexpressed
Method: as §1, §2

[22] = system: Klebsiella aerogenes VIM-1, SHV-12
Method: as §1, §2

[23] = system: Citrobacter freundii species complex OXA-181; settings: Citrobacter freundii species complex, OXA-181; read-out: MIC
Method: as §1, §2

[24] = system: Escherichia coli pSMART_Cfreundii_AmpC
Method: as §1, §2

Nc1nc(/C(=N/OC2(C(=O)O)CNC2)C(=O)N[C@H]2CON(C3(C(=O)O)C[C@H](N4C(=O)c5cc(O)c(O)cc5C4=O)C(=O)O3)C2=O)cs1 (stereo partly drawn) [Cmpd 7, 3-({(Z)-[1-(2-amino-1,3-thiazol-4-yl)-2-({(4S)-2-[(4S)-2-carboxy-4-(5,6-dihydroxy-1,3-dioxo-1,3-dihydro-2H-isoindol-2-yl)-5-oxooxolan-2-yl]-3-oxo-1,2-oxazolidin-4-yl}amino)-2-oxoethylidene]amino}oxy)azetidine-3-carboxylic acid]
MIC [1]: > 16 µg/mL | MIC [2]: 0.12 µg/mL (≈ 0.178 µM) | MIC [3]: 4 µg/mL (≈ 5.92 µM) | MIC [4]: > 16 µg/mL | MIC [5]: 0.12 µg/mL (≈ 0.178 µM) | MIC [6]: 1 µg/mL (≈ 1.48 µM) | MIC [7]: 1 µg/mL (≈ 1.48 µM) | MIC [8]: 8 µg/mL (≈ 11.8 µM) | MIC [9]: 0.5 µg/mL (≈ 0.74 µM) | MIC [10]: 0.5 µg/mL (≈ 0.74 µM) | MIC [11]: 0.5 µg/mL (≈ 0.74 µM) | MIC [12]: > 16 µg/mL | MIC [13]: 0.12 µg/mL (≈ 0.178 µM) | MIC [14]: 0.25 µg/mL (≈ 0.37 µM) | MIC [15]: 0.5 µg/mL (≈ 0.74 µM) | MIC [16]: > 16 µg/mL | MIC [17]: 0.12 µg/mL (≈ 0.178 µM) | MIC [18]: > 16 µg/mL | MIC [19]: 0.5 µg/mL (≈ 0.74 µM) | MIC [20]: 0.5 µg/mL (≈ 0.74 µM) | MIC [21]: > 16 µg/mL | MIC [22]: 8 µg/mL (≈ 11.8 µM) | MIC [23]: 1 µg/mL (≈ 1.48 µM) | MIC [24]: 1 µg/mL (≈ 1.48 µM)

CC(C)(O/N=C(\C(=O)N[C@H]1CON(C2(C(=O)O)C[C@@H](N3C(=O)c4cc(O)c(O)cc4C3=O)C(=O)O2)C1=O)c1csc(N)n1)C(=O)O (stereo partly drawn) [Cmpd 40, (4R)-2-[(4S)-4-{[(2Z)-2-(2-amino-1,3-thiazol-4-yl)-2-{[(2-carboxypropan-2-yl)oxy]imino}acetyl]amino}-3-oxo-1,2-oxazolidin-2-yl]-4-(5,6-dihydroxy-1,3-dioxo-1,3-dihydro-2H-isoindol-2-yl)-5-oxooxolane-2-carboxylic acid]
MIC [1]: 0.12 µg/mL (≈ 0.181 µM) | MIC [2]: 0.03 µg/mL (≈ 0.0453 µM) | MIC [3]: 2 µg/mL (≈ 3.02 µM) | MIC [4]: 0.12 µg/mL (≈ 0.181 µM) | MIC [5]: ≤ 0.015 µg/mL | MIC [6]: 1 µg/mL (≈ 1.51 µM) | MIC [7]: 0.06 µg/mL (≈ 0.0906 µM) | MIC [8]: 2 µg/mL (≈ 3.02 µM) | MIC [9]: ≤ 0.015 µg/mL | MIC [10]: 0.03 µg/mL (≈ 0.0453 µM) | MIC [11]: ≤ 0.015 µg/mL | MIC [12]: 2 µg/mL (≈ 3.02 µM) | MIC [13]: 0.03 µg/mL (≈ 0.0453 µM) | MIC [14]: ≤ 0.015 µg/mL | MIC [15]: 0.06 µg/mL (≈ 0.0906 µM) | MIC [16]: 0.12 µg/mL (≈ 0.181 µM) | MIC [17]: ≤ 0.015 µg/mL | MIC [18]: 0.12 µg/mL (≈ 0.181 µM) | MIC [19]: 0.06 µg/mL (≈ 0.0906 µM) | MIC [20]: 0.06 µg/mL (≈ 0.0906 µM) | MIC [21]: 8 µg/mL (≈ 12.1 µM) | MIC [22]: 0.25 µg/mL (≈ 0.377 µM) | MIC [23]: 0.25 µg/mL (≈ 0.377 µM) | MIC [24]: 0.12 µg/mL (≈ 0.181 µM)

Nc1nc(/C(=N/OC2(C(=O)O)CCC(F)(Cl)CC2)C(=O)N[C@H]2CON(C3(C(=O)O)C[C@H](N4C(=O)c5cc(O)c(O)cc5C4=O)C(=O)O3)C2=O)cs1 (stereo partly drawn) [Cmpd 11, (4S)-2-[(4S)-4-{[(2Z)-2-(2-amino-1,3-thiazol-4-yl)-2-{[(1-carboxy-4-chloro-4-fluorocyclohexyl)oxy]imino}acetyl]amino}-3-oxo-1,2-oxazolidin-2-yl]-4-(5,6-dihydroxy-1,3-dioxo-1,3-dihydro-2H-isoindol-2-yl)-5-oxooxolane-2-carboxylic acid]
MIC [1]: 0.25 µg/mL (≈ 0.331 µM) | MIC [2]: ≤ 0.015 µg/mL | MIC [3]: 1 µg/mL (≈ 1.32 µM) | MIC [4]: 0.25 µg/mL (≈ 0.331 µM) | MIC [5]: ≤ 0.015 µg/mL | MIC [6]: 2 µg/mL (≈ 2.65 µM) | MIC [7]: 0.12 µg/mL (≈ 0.159 µM) | MIC [8]: 2 µg/mL (≈ 2.65 µM) | MIC [9]: 0.03 µg/mL (≈ 0.0397 µM) | MIC [10]: 0.06 µg/mL (≈ 0.0795 µM) | MIC [11]: 0.03 µg/mL (≈ 0.0397 µM) | MIC [12]: 2 µg/mL (≈ 2.65 µM) | MIC [13]: 0.06 µg/mL (≈ 0.0795 µM) | MIC [14]: 0.03 µg/mL (≈ 0.0397 µM) | MIC [15]: 0.12 µg/mL (≈ 0.159 µM) | MIC [16]: 0.06 µg/mL (≈ 0.0795 µM) | MIC [17]: ≤ 0.015 µg/mL | MIC [18]: 0.25 µg/mL (≈ 0.331 µM) | MIC [19]: 0.06 µg/mL (≈ 0.0795 µM) | MIC [20]: 0.06 µg/mL (≈ 0.0795 µM) | MIC [21]: 2 µg/mL (≈ 2.65 µM) | MIC [22]: 0.12 µg/mL (≈ 0.159 µM) | MIC [23]: 0.03 µg/mL (≈ 0.0397 µM) | MIC [24]: 0.06 µg/mL (≈ 0.0795 µM)
